Test results published in US8344009B2, “Substituted phenoxy thiazolidinediones as estrogen related receptor-á modulators” (priority 2007, dated 2013).
Marks after values point to notes of the source that are not given here.

Tests used:
[1] = target: T1, ERR1 (also known as ERR-α or ERR-1) (Homo sapiens, UniProt P11474); assay: TR-FRET assay (disruption of co-activator peptide binding to ERR1 LBD); format: biochemical
T1 sequence (P11474 193-421 limits assumed): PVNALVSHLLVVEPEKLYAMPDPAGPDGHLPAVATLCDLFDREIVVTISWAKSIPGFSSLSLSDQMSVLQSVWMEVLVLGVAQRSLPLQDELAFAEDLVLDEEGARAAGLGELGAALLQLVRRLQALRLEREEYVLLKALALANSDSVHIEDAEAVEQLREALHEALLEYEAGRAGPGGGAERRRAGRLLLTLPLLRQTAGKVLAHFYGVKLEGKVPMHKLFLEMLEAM
Experimental: Time-Resolved Fluorescence Resonance Energy Transfer (TR-FRET) experiments were performed to examine the functional response of ERR1 (also known as ERR-α or ERR-1) ligands. The TR-FRET assay described herein relied on the conformation of ERR1 for binding to a co-activator peptide: when a test compound binds to ERR1 and alters its conformation, it can disrupt the binding of the co-activator peptide. The components of this homogeneous secondary assay included: the ^6His-tagged-ERR1LBD, a GST-labeled-hSRC2 co-activator polypeptide and a fluorescent donor/acceptor pair from CIS bio international htrf/bioassays (Bedford, Mass.) using both an α-GST Europium Cryptate (Eu) label and an α^6His-XL665 (allophycocyanin) fluorophore.
Reactions were allowed to reach equilibrium at 25° C. for 4-18 hours before collecting data on the Analyst from LJL Biosystems (Molecular Devices Sunnyvale, Calif.). […] Dose response curves were fitted using a hyperbolic equation and the data reported is the average of 3 independent experiments.

ZDF fa/fa male rats [2] = assay: ZDF diabetic rat model (3, 10, 30 mpk); format: in vivo; settings: for % Fat Day 18: Q-NMR; for FFA (NEFA) / Glucose / Triglycerides / cholesterol / ketone: 26 day ZDF rat efficacy study; for circulating glucose levels upon intraperitoneal delivery of insulin (ITT): FIG. 4, ITT at day 11
Text: The ZDF rat is a monogenic model of Type II Diabetes. […] This mutation results in a hyperphagic phenotype and the rodent develops obesity, hyperlipidemia, fasting hyperglycemia and Type II Diabetes. The model at 7 weeks of age develops hyperinsulinemia followed by a loss of glucose stimulated insulin secretion due to beta islet failure. Fifty ZDF fa/fa male rats were received at four weeks of age and allowed to acclimate for one week. At five week of age the animals were single housed in cages in a temperature-controlled room with 12-hour light/dark cycle. They were allowed ad libitum access to water and food and throughout the study were maintained on a Purina 5008 diet. Animals were sorted into five groups based first on glucose levels and then at body weight (average fed glucose levels and body weight at 7 weeks of age were 488 mg/dL and 282 grams, respectively). Animals were given Compound 1 orally once a day for 25 days in the morning at 3 mpk, 10 mpk and 30 mpk. A separate group was dosed daily with vehicle. The vehicle used for Compound 1 in this study consisted of 15% VE-TEPG, 30% PEG400 and 55% water. Food intake, body weight, glucose, insulin, triglyceride and free fatty acid levels were monitored throughout the study using blood collected from the tail vein. At day 11 of the study an insulin tolerance test (ITT) was done to evaluate peripheral insulin sensitivity. On day 19 an OGTT was done to assess glucose disposal rates. […] On the day of the necropsy the rats were bled through the orbital sinus under CO2:O2 anesthesia. Animals were sacrificed and several tissues were collected, frozen in liquid nitrogen and stored at −80° C. Serum plasma samples were prepared by centrifugation in EDTA containing tubes, transferred into 96 well plates and stored at −80° C.

ZDF fa/fa male rats [3] = assay: ZDF diabetic rat model at 0.08, 0.4, 2 and 10 mpk; format: in vivo; settings: for % Hb1Ac / FFA (NEFA) / Glucose / Triglycerides / cholesterol / ketone: 28 day ZDF efficacy study; for circulating glucose levels upon intraperitoneal delivery of insulin (ITT): FIG. 10
Text: Briefly, sixty-five ZDF fa/fa male rats were received at four weeks of age and allowed to acclimate for one week. At five week of age the animals were single housed in cages in a temperature-controlled room with 12-hour light/dark cycle. They were allowed ad libitum access to water and food and throughout the study were maintained on a Purina 5008 diet. […] Animals were given Compound 1 orally once a day for 28 days in the morning at 0.08, 0.4, 2.0 and 10 mpk. The vehicle used for Compound 1 in this study consisted of 15% VE-TEPG, 30% PEG400 and 55% water. Food intake, body weight, glucose, insulin, triglyceride and free fatty acid levels were monitored throughout the study using blood collected from the tail vein. At day 16 of the study an insulin tolerance test (ITT) was done to evaluate peripheral insulin sensitivity. On day 22 an OGTT was done to assess glucose disposal rates. On the day of the necropsy the rats were bled through the orbital sinus under CO2:O2 anesthesia. Animals were sacrificed and several tissues were collected, frozen in liquid nitrogen and stored at −80° C. Serum plasma samples were prepared by centrifugation in EDTA containing tubes, transferred into 96 well plates and stored at −80° C.

## COc1cc(/C=C2\SC(=O)NC2=O)ccc1Oc1ccc(C#N)cc1C(F)(F)F [Compound 1, 4-[4-(2,4-Dioxo-thiazolidin-5-ylidenemethyl)-2-methoxy-phenoxy]-3-trifluoromethyl-benzonitrile]
[1]
  EC50: 54 nM
ZDF fa/fa male rats [2]; 3 mpk orally once a day
  Body weight change (0-25 day): 62.7*
  Total food intake (0-25 days): 727
  % Fat Day 18: 58** %
ZDF fa/fa male rats [2]; 3 mpk
  FFA (NEFA): 0.65 mM
  Glucose: 584.88 mg/dL
  Triglycerides: 596.33 mg/dL
  cholesterol: 145.70 mg/dL
  ketone: 183.97 µmol/L
ZDF fa/fa male rats [2]; 10 mpk orally once a day
  Body weight change (0-25 day): 49.3
  Total food intake (0-25 days): 720
  % Fat Day 18: 59** %
ZDF fa/fa male rats [2]; 10 mpk
  FFA (NEFA): 0.54 mM
  Glucose: 549.63 mg/dL
  Triglycerides: 402.39** mg/dL
  cholesterol: 156.08* mg/dL
  ketone: 144.61 µmol/L
ZDF fa/fa male rats [2]; 30 mpk orally once a day
  Body weight change (0-25 day): 65.3*
  Total food intake (0-25 days): 703**
  % Fat Day 18: 60*** %
ZDF fa/fa male rats [2]; 30 mpk
  FFA (NEFA): 0.48 mM
  Glucose: 545.64 mg/dL
  Triglycerides: 320.94*** mg/dL
  cholesterol: 169.92** mg/dL
  ketone: 134.84* umol/L
ZDF fa/fa male rats [2]; FIG. 3, versus vehicle control
  fed free fatty acid levels: reduces
  fed triglyceride levels: reduces
ZDF fa/fa male rats [2]
  circulating glucose levels upon intraperitoneal delivery of insulin (ITT): reduction in circulating glucose levels
ZDF fa/fa male rats [2]; listed as compound 1
  circulating glucose levels upon intraperitoneal delivery of insulin (ITT): normalizing glucose levels at the 30 minute time point
ZDF fa/fa male rats [2]; FIG. 4 right panel, 0-60 and 0-120 minute time points
  AUC of glucose during the ITT: reduction of AUC of glucose
ZDF fa/fa male rats [2]; FIG. 5, after a 16 hour fast
  fasting glucose levels: reduction in fasting glucose levels
ZDF fa/fa male rats [2]; FIG. 6, OGTT day 19
  plasma glucose following an oral glucose tolerance test: lowering fasting plasma glucose
ZDF fa/fa male rats [2]; FIG. 7
  insulin release levels following an oral glucose tolerance test: increase on insulin release levels
ZDF fa/fa male rats [2]; FIG. 8, after 26 days treatment
  Hb1Ac levels: reduction in Hb1Ac levels
ZDF fa/fa male rats [2]; FIG. 8, first three weeks of the study
  fed glucose levels: lowering of fed glucose levels
ZDF fa/fa male rats [2]; FIG. 9
  fed plasma insulin levels: increasing fed plasma insulin levels
  pancreatic insulin content: increasing
ZDF fa/fa male rats [3]; 0.08 mpk orally once a day
  Body weight change (0-28 day): 71.7
  Total food intake (0-28 days): 804.5
ZDF fa/fa male rats [3]; 0.08 mpk
  % Hb1Ac: 10.1%
  FFA (NEFA): 1.2 mM
  Glucose: 444 mg/dL
  Triglycerides: 770 mg/dL
  cholesterol: 118 mg/dL
  ketone: 162 µmol/L
ZDF fa/fa male rats [3]; 0.4 mpk orally once a day
  Body weight change (0-28 day): 61.9
  Total food intake (0-28 days): 792.3
ZDF fa/fa male rats [3]; 0.4 mpk
  % Hb1Ac: 10.0%
  FFA (NEFA): 0.61 mM
  Glucose: 419 mg/dL
  Triglycerides: 672 mg/dL
  cholesterol: 119 mg/dL
  ketone: 113 µmol/L
ZDF fa/fa male rats [3]; 2.0 mpk orally once a day
  Body weight change (0-28 day): 80.4
  Total food intake (0-28 days): 792.6
ZDF fa/fa male rats [3]; 2.0 mpk
  % Hb1Ac: 8.8%
  FFA (NEFA): 0.87 mM
  Glucose: 376 mg/dL
  Triglycerides: 605 mg/dL
  cholesterol: 117 mg/dL
  ketone: 95* umol/L
ZDF fa/fa male rats [3]; 10 mpk orally once a day
  Body weight change (0-28 day): 95.4
  Total food intake (0-28 days): 771.4
ZDF fa/fa male rats [3]; 10.0 mpk
  % Hb1Ac: 7.7%
  FFA (NEFA): 0.75 mM
  Glucose: 274* mg/dL
  Triglycerides: 506 mg/dL
  cholesterol: 121 mg/dL
  ketone: 85* umol/L
ZDF fa/fa male rats [3]
  circulating glucose levels upon intraperitoneal delivery of insulin (ITT): reduction in circulating glucose levels
ZDF fa/fa male rats [3]; listed as compound 1
  circulating glucose levels upon intraperitoneal delivery of insulin (ITT): normalizing glucose levels at the 30 minute time point
ZDF fa/fa male rats [3]; FIG. 10 right panel, 0-60 and 0-120 minute time point
  AUC of glucose during the ITT: reduction of AUC of glucose
ZDF fa/fa male rats [3]; FIG. 11, after a 4 and 16 hour fast
  fasting glucose levels: reduction in fasting glucose levels
ZDF fa/fa male rats [3]; FIG. 12, OGTT day 22
  plasma glucose following an oral glucose tolerance test: reducing fasting plasma glucose
ZDF fa/fa male rats [3]; FIG. 13, first three weeks of the study
  fed plasma glucose levels: lowering of fed plasma glucose levels
